Data on one compound can be found in ChEMBL document CHEMBL3600288, “Development of Selective Covalent Janus Kinase 3 Inhibitors” (J Med Chem, 2015).

Common to all, as to assay type: ADME, organism-based
Data set [1] concerns Mus musculus. Description: AUClast in Swiss albino mouse at 10 mg/kg, po. Further details: dose 10 mg/kg, route oral, time 0 - last. As to conditions: in vivo.
Data set [2] in a line: Tmax in Swiss albino mouse at 10 mg/kg, po. Particulars: in vivo.
The nature of data set [3]: Cmax in Swiss albino mouse at 2 mg/kg, iv. Further details: dose 2 mg/kg, route intravenous. Particulars: in vivo.
A short description of data set [4]: Oral bioavailability in Swiss albino mouse at 10 mg/kg. Particulars: in vivo.
The nature of data set [5]: Cmax in Swiss albino mouse at 10 mg/kg, po. Also on record: dose 10 mg/kg, route oral. As to conditions: in vivo.
Data set [6] has as its system Mus musculus. Description: AUClast in Swiss albino mouse at 2 mg/kg, iv. As to conditions: in vivo. Also on record: dose 2 mg/kg, time 0 - last, route intravenous.
Data set [7] in a line: Volume of distribution at steady state in Swiss albino mouse at 2 mg/kg, iv. Particulars: in vivo, read-out: Vdss.

A word on the Tmax: it is the time at which the peak concentration occurs. In general, Cmax refers to the peak of the concentration-time curve. The term bioavailability denotes dose-corrected exposure relative to a reference, in per cent.

Take `C=CC(=O)Nc1cccc(CNc2nc(Nc3ccc(N4CCN(C)CC4)cc3OC)ncc2Cl)c1`: the AUClast in the data set on Mus musculus [1] worked out at 795.29 h/ng/mL; in the data set on Mus musculus [6], 241.3 h/ng/mL. For the same compound, in data set [2], the Tmax worked out at 30 min. The results for the Cmax in data set [3] and in data set [5] were 159 ng/mL and 204 ng/mL, respectively. For the same compound, the bioavailability in data set [4] turned out to be 66%. The Vd in data set [7] came to 18.4 L/kg.
